Measured values: patent US20260028365A1 (BIOGEN MA INC., priority 2022, published 2026)

Experiments:
JH2 domain of human Tyk2 = JH2 domain of human Tyk2 (Homo sapiens (Human), UniProt P29597); test: JH2 Biochemical Assay (TR-FRET probe displacement); assay type: binding
Description: The inhibitory potency of compounds of the disclosure against the kinase activity of recombinantly generated JH2 domain of human Tyk2 was evaluated in a plate-based assay using a TR-FRET assay platform. Briefly, 2 nM of recombinant JH2 domain [10×His-tagged TYK2 JH2 domain (amino acid 575-876)] was combined with 2 nM probe ((S)-6-amino-9-(2-carboxy-4-((1-(3-(8-methyl-5-(methylamino)-8H-imidazo[4,5-d]thiazolo[5,4-b]pyridin-2-yl)phenyl)ethyl)carbamoyl)phenyl)-3-iminio-5-sulfo-3H-xanthene-4-sulfonate), 0.1 nM Tb-labeled anti-His antibody, and compounds of disclosure for 60 minutes. Compounds are tested at either 10 μM or 1 μM top concentration, 10 points of 3-fold dilution. The TR-FRET signal inversely correlates to the amount of probe displaced by compounds and signal was calculated by taking the ratio of fluorescence at 520 nm and 495 nm. The data was normalized and the percent activity versus log concentration of compound was fitted with a 4-parameter logistic model to generate IC50 curves.

Tyk2 = Tyk2 (Homo sapiens (Human), UniProt P29597); test: pSTAT4 Cell Assay (MSD, NK92 cells); assay type: cell-based
Sequence of Tyk2 (P29597 whole entry, the tested form may be a part): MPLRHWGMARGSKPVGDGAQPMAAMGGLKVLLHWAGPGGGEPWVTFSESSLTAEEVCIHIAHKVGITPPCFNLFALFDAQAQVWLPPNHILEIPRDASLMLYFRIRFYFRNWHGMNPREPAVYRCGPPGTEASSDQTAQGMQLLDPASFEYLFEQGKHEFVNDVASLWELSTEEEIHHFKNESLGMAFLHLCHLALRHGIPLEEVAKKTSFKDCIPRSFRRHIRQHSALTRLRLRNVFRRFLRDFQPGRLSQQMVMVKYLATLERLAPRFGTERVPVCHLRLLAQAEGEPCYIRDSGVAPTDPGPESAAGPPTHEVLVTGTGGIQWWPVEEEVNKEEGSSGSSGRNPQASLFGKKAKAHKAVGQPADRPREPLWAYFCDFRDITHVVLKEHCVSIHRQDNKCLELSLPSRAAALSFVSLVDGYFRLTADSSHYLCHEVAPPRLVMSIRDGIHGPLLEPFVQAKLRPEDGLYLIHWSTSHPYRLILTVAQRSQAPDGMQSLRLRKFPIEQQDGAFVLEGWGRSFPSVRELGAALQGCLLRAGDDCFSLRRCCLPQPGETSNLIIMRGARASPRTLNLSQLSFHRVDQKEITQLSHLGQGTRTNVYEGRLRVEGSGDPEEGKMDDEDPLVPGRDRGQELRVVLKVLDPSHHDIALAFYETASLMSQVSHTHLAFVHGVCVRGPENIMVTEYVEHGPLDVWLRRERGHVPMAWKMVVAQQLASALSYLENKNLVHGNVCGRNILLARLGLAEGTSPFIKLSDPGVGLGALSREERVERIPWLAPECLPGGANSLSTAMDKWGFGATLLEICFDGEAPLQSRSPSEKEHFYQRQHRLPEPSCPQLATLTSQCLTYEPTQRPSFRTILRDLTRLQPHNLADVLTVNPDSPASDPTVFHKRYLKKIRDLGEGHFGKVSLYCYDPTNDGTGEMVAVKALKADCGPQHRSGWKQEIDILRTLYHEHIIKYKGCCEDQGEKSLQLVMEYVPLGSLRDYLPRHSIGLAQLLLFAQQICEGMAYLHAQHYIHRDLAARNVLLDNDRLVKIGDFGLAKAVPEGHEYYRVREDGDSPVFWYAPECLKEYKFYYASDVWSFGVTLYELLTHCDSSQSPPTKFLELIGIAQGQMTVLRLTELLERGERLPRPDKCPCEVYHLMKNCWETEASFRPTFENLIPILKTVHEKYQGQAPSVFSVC

[1] = TR-FRET probe displacement, JH2 domain of human Tyk2
[2] = JH2 domain of human Tyk2, TR-FRET probe displacement

Sequence of JH2 domain of human Tyk2 (P29597 575-876): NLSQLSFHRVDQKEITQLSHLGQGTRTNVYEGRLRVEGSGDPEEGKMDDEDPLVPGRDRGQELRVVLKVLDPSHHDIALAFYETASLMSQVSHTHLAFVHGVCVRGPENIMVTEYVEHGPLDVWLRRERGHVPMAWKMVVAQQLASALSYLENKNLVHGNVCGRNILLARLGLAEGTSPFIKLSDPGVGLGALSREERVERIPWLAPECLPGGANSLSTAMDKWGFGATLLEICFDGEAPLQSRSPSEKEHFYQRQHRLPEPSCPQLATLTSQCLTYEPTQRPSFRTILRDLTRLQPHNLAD

Compound: CCOc1cnc(NC(=O)C2CC2)cc1Nc1cc(C)nc(C(C)(F)F)n1 [Example 28, N-(4-((2-(1,1-difluoroethyl)-6-methylpyrimidin-4-yl)amino)-5-ethoxypyridin-2-yl)cyclopropanecarboxamide]
- IC50 (JH2 domain of human Tyk2; [1]): 10 to 100 nM

Compound: CCOc1cnc(NC(C)=O)cc1Nc1cc(C(C)(F)F)ncn1 [Example 33, N-(4-((6-(1,1-difluoroethyl)pyrimidin-4-yl)amino)-5-ethoxypyridin-2-yl)acetamide]
- IC50 (JH2 domain of human Tyk2; [1]): 100 to 1000 nM

Compound: CC(=O)Nc1cc(Nc2cc(C)nc(C(C)(F)F)n2)c(C(C)C)cn1 [Example 44, N-(4-((2-(1,1-difluoroethyl)-6-methylpyrimidin-4-yl)amino)-5-isopropylpyridin-2-yl)acetamide]
- IC50 (JH2 domain of human Tyk2; [1]): 10 to 100 nM

Compound: CCOc1cnc(NC(C)=O)cc1N(C)c1cc(C)nc(C(C)(F)F)n1 [Example 54, N-(4-((2-(1,1-difluoroethyl)-6-methylpyrimidin-4-yl)(methyl)amino)-5-ethoxypyridin-2-yl)acetamide]
- IC50 (JH2 domain of human Tyk2; [1]): ≥ 1000 nM

Compound: CC(=O)Nc1cc(Nc2cc(C)nc(C(C)(F)F)n2)c(CCCN(C)C)cn1 [Example 151, N-(4-((2-(1,1-difluoroethyl)-6-methylpyrimidin-4-yl)amino)-5-(3-(dimethylamino)propyl)pyridin-2-yl)acetamide]
- IC50 (JH2 domain of human Tyk2; [1]): 100 to 1000 nM

Compound: COCCCc1cnc(NC(C)=O)cc1Nc1cc(C)nc(C(C)(F)F)n1 [Example 152, N-(4-((2-(1,1-difluoroethyl)-6-methylpyrimidin-4-yl)amino)-5-(3-methoxypropyl)pyridin-2-yl)acetamide]
- IC50 (JH2 domain of human Tyk2; [1]): 10 to 100 nM

Compound: CCc1cc(Nc2cc(NC(C)=O)ncc2-c2noc(C)n2)nc(C(C)(F)F)n1 [Example 170, N-(4-((2-(1,1-difluoroethyl)-6-ethylpyrimidin-4-yl)amino)-5-(5-methyl-1,2,4-oxadiazol-3-yl)pyridin-2-yl)acetamide]
- IC50 (JH2 domain of human Tyk2; [1]): 10 to 100 nM

Compound: CC(=O)Nc1cc(Nc2ccnc(C(C)(F)F)c2)c(-c2cc(C)ncn2)cn1 [Example 199, N-(4-((2-(1,1-difluoroethyl)pyridin-4-yl)amino)-5-(6-methylpyrimidin-4-yl)pyridin-2-yl)acetamide]
- IC50 (JH2 domain of human Tyk2; [1]): 10 to 100 nM

Compound: CCc1cc(Nc2cc(NC(C)=O)ncc2-c2ccc(OC)nn2)nc(C(C)(F)F)n1 [Example 220, N-(4-((2-(1,1-difluoroethyl)-6-ethylpyrimidin-4-yl)amino)-5-(6-methoxypyridazin-3-yl)pyridin-2-yl)acetamide]
- IC50 (JH2 domain of human Tyk2; [1]): ≤ 10 nM

Compound: CC(=O)Nc1cc(Nc2cc(C)nc(C(C)(F)F)n2)c(-c2cc(C(C)(C)C#N)ncn2)cn1 [Example 241, N-(5-(6-(2-cyanopropan-2-yl)pyrimidin-4-yl)-4-((2-(1,1-difluoroethyl)-6-methylpyrimidin-4-yl)amino)pyridin-2-yl)acetamide]
- IC50 (JH2 domain of human Tyk2; [1]): 100 to 1000 nM

Compound: CC(=O)Nc1cc(Nc2cc(C)nc(C(C)(F)F)n2)c(-c2cc(N3CCN(C)CC3)ncn2)cn1 [Example 248, N-(4-((2-(1,1-difluoroethyl)-6-methylpyrimidin-4-yl)amino)-5-(6-(4-methylpiperazin-1-yl)pyrimidin-4-yl)pyridin-2-yl)acetamide]
- IC50 (JH2 domain of human Tyk2; [1]): 10 to 100 nM

Compound: CC(=O)Nc1cc(Nc2cc(C)nc(C(C)(F)F)n2)c(-c2nc3c(s2)CN(CC#N)CC3)cn1 [Example 285, N-(5-(5-(cyanomethyl)-4,5,6,7-tetrahydrothiazolo[5,4-c]pyridin-2-yl)-4-((2-(1,1-difluoroethyl)-6-methylpyrimidin-4-yl)amino)pyridin-2-yl)acetamide]
- IC50 (JH2 domain of human Tyk2; [1]): ≤ 10 nM

Compound: CC(=O)Nc1cc(Nc2cc(C)nc(C(C)(F)F)n2)c(OCCOC2CC2)cn1 [Example 316, N-(5-(2-cyclopropoxyethoxy)-4-((2-(1,1-difluoroethyl)-6-methylpyrimidin-4-yl)amino)pyridin-2-yl)acetamide]
- IC50 (JH2 domain of human Tyk2; [1]): ≤ 10 nM

Compound: CC(=O)Nc1cc(Nc2cc(C)nc(C(C)(F)F)n2)c(OCC2(C)CCOCC2)cn1 [Example 317, N-(4-((2-(1,1-difluoroethyl)-6-methylpyrimidin-4-yl)amino)-5-((4-methyltetrahydro-2H-pyran-4-yl)methoxy)pyridin-2-yl)acetamide]
- IC50 (JH2 domain of human Tyk2; [1]): ≤ 10 nM

Compound: CC(=O)Nc1cc(Nc2cc(C)nc(C(C)(F)F)n2)c(OCc2ncsc2C)cn1 [Example 329, N-(4-((2-(1,1-difluoroethyl)-6-methylpyrimidin-4-yl)amino)-5-((5-methylthiazol-4-yl)methoxy)pyridin-2-yl)acetamide]
- IC50 (JH2 domain of human Tyk2; [1]): 10 to 100 nM

Compound: CC(=O)Nc1cc(Nc2cc(C)nc(C(C)(F)F)n2)c(OCC2(CF)CCOCC2)cn1 [Example 340, N-(4-((2-(1,1-difluoroethyl)-6-methylpyrimidin-4-yl)amino)-5-((4-(fluoromethyl)tetrahydro-2H-pyran-4-yl)methoxy)pyridin-2-yl)acetamide]
- IC50 (JH2 domain of human Tyk2; [1]): 10 to 100 nM

Compound: CC(=O)Nc1cc(Nc2cc(C)nc(C(C)(F)F)n2)c(OC[C@]23CC[C@](C)(CC2)CO3)cn1 [Example 347, N-(4-((2-(1,1-difluoroethyl)-6-methylpyrimidin-4-yl)amino)-5-(((1s,4s)-4-methyl-2-oxabicyclo[2.2.2]octan-1-yl)methoxy)pyridin-2-yl)acetamide]
- IC50 (JH2 domain of human Tyk2; [1]): ≤ 10 nM

Compound: COc1cnc(NC(C)=O)cc1Nc1cc(-c2cc(C)c3nc(C)nn3c2)nc(C(C)(F)F)n1 [Example 397, N-(4-((2-(1,1-difluoroethyl)-6-(2,8-dimethyl-[1,2,4]triazolo[1,5-a]pyridin-6-yl)pyrimidin-4-yl)amino)-5-methoxypyridin-2-yl)acetamide]
- IC50 (JH2 domain of human Tyk2; [2]): ≤ 10 nM

Compound: COc1cnc(NC(C)=O)cc1Nc1cc(-c2cc(C)c3nn(C)cc3c2)nc(C(C)(F)F)n1 [Example 400, N-(4-((2-(1,1-difluoroethyl)-6-(2,7-dimethyl-2H-indazol-5-yl)pyrimidin-4-yl)amino)-5-methoxypyridin-2-yl)acetamide]
- IC50 (JH2 domain of human Tyk2; [2]): ≤ 10 nM

Compound: COc1cnc(NC(C)=O)cc1Nc1cc(-c2cc(C)c3nc(C)cn3c2)nc(C(C)(F)F)n1 [Example 403, N-(4-((2-(1,1-difluoroethyl)-6-(2,8-dimethylimidazo[1,2-a]pyridin-6-yl)pyrimidin-4-yl)amino)-5-methoxypyridin-2-yl)acetamide]
- IC50 (JH2 domain of human Tyk2; [2]): ≤ 10 nM

Compound: CCc1cc(Nc2cc(NC(C)=O)ncc2-c2ccc(F)c(CN3C[C@H]4C[C@@H]3CO4)n2)nc(C(C)(F)F)n1 [Example 908, N-(6-(((1R,4R)-2-oxa-5-azabicyclo[2.2.1]heptan-5-yl)methyl)-4′-((2-(1,1-difluoroethyl)-6-ethylpyrimidin-4-yl)amino)-5-fluoro-[2,3′-bipyridin]-6′-yl)acetamide]
- IC50 (Tyk2): ≤ 10 nM

Compound: CCc1cc(Nc2cc(NC(C)=O)ncc2-c2ccnc(CN3CCOCC3)n2)nc(C(C)(F)F)n1 [Example 909, N-(4-((2-(1,1-difluoroethyl)-6-ethylpyrimidin-4-yl)amino)-5-(2-(morpholinomethyl)pyrimidin-4-yl)pyridin-2-yl)acetamide]
- IC50 (Tyk2): 100 to 1000 nM

Compound: CCc1cc(Nc2cc(NC(C)=O)ncc2-c2ccc(F)c(CN3CCOCC3)n2)nc(C(C)(F)F)n1 [Example 910, N-(4′-((2-(1,1-difluoroethyl)-6-ethylpyrimidin-4-yl)amino)-5-fluoro-6-(morpholinomethyl)-[2,3′-bipyridin]-6′-yl)acetamide]
- IC50 (Tyk2): ≤ 10 nM

Compound: CCc1cc(Nc2cc(NC(C)=O)ncc2-c2ccc(CN3C[C@H]4C[C@@H](C3)O4)cn2)nc(C(C)(F)F)n1 [Example 912, N-(5-(((1R,5S)-6-oxa-3-azabicyclo[3.1.1]heptan-3-yl)methyl)-4′-((2-(1,1-difluoroethyl)-6-ethylpyrimidin-4-yl)amino)-[2,3′-bipyridin]-6′-yl)acetamide]
- IC50 (Tyk2): ≤ 10 nM

Compound: CCc1cc(Nc2cc(NC(C)=O)ncc2-c2ccnc(CN3C[C@H]4C[C@@H](C3)O4)n2)nc(C(C)(F)F)n1 [Example 913, N-(5-(2-(((1R,5S)-6-oxa-3-azabicyclo[3.1.1]heptan-3-yl)methyl)pyrimidin-4-yl)-4-((2-(1,1-difluoroethyl)-6-ethylpyrimidin-4-yl)amino)pyridin-2-yl)acetamide]
- IC50 (Tyk2): 10 to 100 nM

Compound: CCc1cc(Nc2cc(NC(C)=O)ncc2-c2ccc(F)c(CN3C[C@H]4C[C@@H](C3)O4)n2)nc(C(C)(F)F)n1 [Example 915, N-(6-(((1R,5S)-6-oxa-3-azabicyclo[3.1.1]heptan-3-yl)methyl)-4′-((2-(1,1-difluoroethyl)-6-ethylpyrimidin-4-yl)amino)-5-fluoro-[2,3′-bipyridin]-6′-yl)acetamide]
- IC50 (Tyk2): ≤ 10 nM

Compound: CC(=O)Nc1cc(Nc2cc(C)nc(C(C)(F)F)n2)c(-c2ccc(P(C)(C)=O)cn2)cn1 [Example 916, N-(4′-((2-(1,1-difluoroethyl)-6-methylpyrimidin-4-yl)amino)-5-(dimethylphosphoryl)-[2,3′-bipyridin]-6′-yl)acetamide]
- IC50 (Tyk2): ≤ 10 nM

Compound: CC(=O)Nc1cc(Nc2cc(C)nc(C(C)(F)F)n2)c(-c2ccc(P(C)(C)=O)nn2)cn1 [Example 917, N-(4-((2-(1,1-difluoroethyl)-6-methylpyrimidin-4-yl)amino)-5-(6-(dimethylphosphoryl)pyridazin-3-yl)pyridin-2-yl)acetamide]
- IC50 (Tyk2): 10 to 100 nM

Compound: CC(=O)Nc1cc(Nc2ccnc(C(C)(F)F)n2)c(-c2csc(CC#N)n2)cn1 [Example 922, N-(5-(2-(cyanomethyl)thiazol-4-yl)-4-((2-(1,1-difluoroethyl)pyrimidin-4-yl)amino)pyridin-2-yl)acetamide]
- IC50 (Tyk2): ≤ 10 nM
